System: P12-Ichikawa
Test: cell viability relative to DMSO control; higher = less cytotoxic
Details: 48 h
Procedure, shortened: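 Cells were incubated for 48 h at 37°C before CellTiter-Glo One luminescence was read. The cells were NOMO1 or SEM (500 cells/well) or P12-Ichikawa (1000 cells/well) leukemia cells, adapted for at least four passages in each medium and seeded in 1536-well plates (5 μl). Dosing used library compounds in DMSO applied by pin over 11 threefold points, 47 μM to 0.79 nM. Viability is the per-plate percentage of DMSO wells, with cell-free wells as background.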

[1] = HPLM + 10% dialyzed FBS, 0.000781 µM
[2] = HPLM + 10% dialyzed FBS, 0.00234 µM
[3] = HPLM + 10% dialyzed FBS, 0.00702 µM
[4] = HPLM + 10% dialyzed FBS, 0.0211 µM
[5] = HPLM + 10% dialyzed FBS, 0.0632 µM
[6] = HPLM + 10% dialyzed FBS, 0.19 µM
[7] = HPLM + 10% dialyzed FBS, 0.569 µM
[8] = HPLM + 10% dialyzed FBS, 1.71 µM
[9] = HPLM + 10% dialyzed FBS, 5.12 µM
[10] = HPLM + 10% dialyzed FBS, 15.4 µM
[11] = HPLM + 10% dialyzed FBS, 46.1 µM
[12] = RPMI 5 mM glucose + 10% FBS, 0.000781 µM
[13] = RPMI 5 mM glucose + 10% FBS, 0.00234 µM
[14] = RPMI 5 mM glucose + 10% FBS, 0.00702 µM
[15] = RPMI 5 mM glucose + 10% FBS, 0.0211 µM
[16] = RPMI 5 mM glucose + 10% FBS, 0.0632 µM
[17] = RPMI 5 mM glucose + 10% FBS, 0.19 µM
[18] = RPMI 5 mM glucose + 10% FBS, 0.569 µM
[19] = RPMI 5 mM glucose + 10% FBS, 1.71 µM
[20] = RPMI 5 mM glucose + 10% FBS, 5.12 µM
[21] = RPMI 5 mM glucose + 10% FBS, 15.4 µM
[22] = RPMI 5 mM glucose + 10% FBS, 46.1 µM
[23] = RPMI 5 mM glucose + 10% dialyzed FBS, 0.000781 µM
[24] = RPMI 5 mM glucose + 10% dialyzed FBS, 0.00234 µM
[25] = RPMI 5 mM glucose + 10% dialyzed FBS, 0.00702 µM
[26] = RPMI 5 mM glucose + 10% dialyzed FBS, 0.0211 µM
[27] = RPMI 5 mM glucose + 10% dialyzed FBS, 0.0632 µM
[28] = RPMI 5 mM glucose + 10% dialyzed FBS, 0.19 µM
[29] = RPMI 5 mM glucose + 10% dialyzed FBS, 0.569 µM
[30] = RPMI 5 mM glucose + 10% dialyzed FBS, 1.71 µM
[31] = RPMI 5 mM glucose + 10% dialyzed FBS, 5.12 µM
[32] = RPMI 5 mM glucose + 10% dialyzed FBS, 15.4 µM
[33] = RPMI 5 mM glucose + 10% dialyzed FBS, 46.1 µM

SMILES	cell viability [1] [%]	cell viability [2] [%]	cell viability [3] [%]	cell viability [4] [%]	cell viability [5] [%]	cell viability [6] [%]	cell viability [7] [%]	cell viability [8] [%]	cell viability [9] [%]	cell viability [10] [%]	cell viability [11] [%]	cell viability [12] [%]	cell viability [13] [%]	cell viability [14] [%]	cell viability [15] [%]	cell viability [16] [%]	cell viability [17] [%]	cell viability [18] [%]	cell viability [19] [%]	cell viability [20] [%]	cell viability [21] [%]	cell viability [22] [%]	cell viability [23] [%]	cell viability [24] [%]	cell viability [25] [%]	cell viability [26] [%]	cell viability [27] [%]	cell viability [28] [%]	cell viability [29] [%]	cell viability [30] [%]	cell viability [31] [%]	cell viability [32] [%]	cell viability [33] [%]
Nc1nnc(-c2cccc(Cl)c2Cl)c(N)n1	87.5	105	104	10.7	107	106	99.7	104	102	112	102	90.2	98.1	95.8	11.9	100	106	99.6	90.5	102	102	91	83.8	88.4	87.7	29.6	95	97.7	99.4	97.5	98.7	105	92.1
CC(C)c1ccc(Cn2ccc3c4c(N)nc(NC5CC5)nc4ccc32)cc1	110	116	119	84	116	100	83.4	65.6	32.7	26.7	2.54	118	123	127	84.8	126	133	133	114	52.2	51.5	2.24	118	124	122	86.4	139	126	132	85.5	36.5	32.1	2.44
CN[C@@H](C)C(=O)N[C@H]1CN(C(=O)CC(C)C)CC[C@H]2CC[C@@H](C(=O)NC(c3ccccc3)c3ccccc3)N2C1=O	98.3	104	107	111	110	102	103	100	96.7	14.8	10.2	96.8	110	109	111	114	112	112	108	87.3	18.1	10.2	90.1	113	101	115	105	111	112	107	97.8	43.3	16.1
CC(/C=C/C(=O)NO)=C\[C@@H](C)C(=O)c1ccc(N(C)C)cc1	111	115	114	107	109	114	90.5	48.4	3.82	1.6	0.388	116	116	119	114	119	111	98.3	28.3	2.14	1.05	0.409	107	113	109	116	110	107	91.8	29.8	2.07	1.68	0.629
COc1ncnc(N[S+](=O)([O-])c2ccc(N)cc2)c1OC	113	117	116	112	109	92.6	79.8	72	25.8	22.2	27	115	111	116	124	101	85.3	73.3	59.3	43.8	12.9	11.6	108	116	113	103	97.1	86.3	66.6	53.8	39.4	18.7	14.8
Cn1c(=O)n(-c2ccc(C(C)(C)C#N)cc2)c2c3cc(-c4cnc5ccccc5c4)ccc3ncc21	108	120	113	105	110	98	92.1	43.2	18.2	13.3	17.6	114	108	106	90.6	88.2	82.7	67.6	67.2	42.1	10.7	12.1	110	117	111	105	101	82	81.1	57	33.4	15.3	16.1
Cn1cc(/C=C2\C(=O)Nc3cccnc32)c2ccccc21	116	124	127	121	133	133	124	134	126	15.5	16.6	–	–	–	–	–	–	–	–	–	–	–	–	–	–	–	–	–	–	–	–	–	–
Nc1cc(C(F)(F)F)c(-c2cc(N3CCOCC3)nc(N3CCOCC3)n2)cn1	–	–	–	–	–	–	–	–	–	–	–	111	124	135	137	133	126	94.8	67.2	15.7	13.2	7.95	–	–	–	–	–	–	–	–	–	–	–
Cc1csc(NC(=O)c2sc3nc4c(c(C(F)(F)F)c3c2N)CCC4)n1	88.3	102	98.1	98	94.4	93.8	95	91.3	90.3	84.5	83.4	87.2	100	94	92.1	88.6	91.1	98.7	90.1	88.1	79.2	86.5	82.7	83.3	81.6	84.3	89.4	86.4	88.6	78.2	84.9	69.9	73.6
CNC[C@H](O)c1cccc(O)c1	92	95.4	103	12.5	107	102	108	116	111	105	109	84.8	98.4	94.8	15.9	101	109	103	109	99.5	103	114	84.5	84.4	89.1	26.2	97.9	99.5	101	96.3	91.2	105	98
O=C(c1ccc(F)c(F)c1Nc1ccc(I)cc1F)N1CC(O)([C@@H]2CCCCN2)C1	93.9	102	102	111	109	108	100	99	93.6	12.6	11.1	97.3	102	112	97.8	101	104	87.5	93	82.7	12.8	7.93	88.6	114	115	116	111	108	114	105	96.2	36.8	14.8
COc1ccc2c(c1)c(CC(=O)OCC(=O)O)c(C)n2C(=O)c1ccc(Cl)cc1	119	126	118	113	116	114	112	118	112	116	108	–	–	–	–	–	–	–	–	–	–	–	120	125	116	139	116	119	120	113	115	113	107
CN1CCC[C@@H]1CCO[C@](C)(c1ccccc1)c1ccc(Cl)cc1	94.5	100	99.3	113	105	104	104	107	112	109	97.2	97.8	104	106	104	108	98.1	104	114	100	119	101	93.9	101	111	106	103	100	105	102	104	108	90
COc1ccc(Nc2nccc(NCCO)n2)cc1	73.7	83.2	82.1	84.8	88.2	85.2	81.9	81.5	76.7	89.5	80.8	72	81.3	79.4	86.8	89.8	81.5	76.8	73.6	79	85	85.3	69	76.7	78	81.5	78.9	81.7	79.9	81.9	78.4	79.9	77.9
COC1=CC=CC(=C1N)\C2=C\C(=O)C3=C(O2)C=CC=C3	110	122	122	133	128	129	134	129	129	133	120	–	–	–	–	–	–	–	–	–	–	–	–	–	–	–	–	–	–	–	–	–	–
CN(C)CC[C@H](c1ccc(Cl)cc1)c1ccccn1	83.7	78.9	84.2	84.8	90.7	90.3	85.8	90.9	87.1	86	89.7	76.9	78	75.6	78.9	80.8	80.8	90.4	85.2	84.1	81.2	82.3	69.9	81.6	73.6	83.9	86.2	80.9	78.1	78.8	76.9	82.3	77.5
